Data published in ChEMBL document CHEMBL1201862, “PubChem BioAssay data set” (2004).
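Assay format: 96-well plates, 48-hour exposure. Abbreviation: GI50, concentration required for 50% inhibition of growth.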 Activity calls are given as the source filed them. Cut-off read from the data, not from the text of the source: active = GI50 up to about 1.1 µM and inactive = higher.

What was measured:
Assay in all cases: NCI-60 cell line screen, 48 h
786-0 = tested on: 786-0
A498 = tested on: A498
A549 = tested on: A549
ACHN = tested on: ACHN
BT-549 = tested on: BT-549
CAKI-1 = tested on: CAKI-1
CCRF-CEM = tested on: CCRF-CEM
COLO 205 = tested on: COLO 205
DU-145 = tested on: DU-145
EKVX = tested on: EKVX
HCC 2998 = tested on: HCC 2998
HCT-116 = tested on: HCT-116
HCT-15 = tested on: HCT-15
HL-60 = tested on: HL-60
HOP-62 = tested on: HOP-62
HOP-92 = tested on: HOP-92
HT-29 = tested on: HT-29
Hs-578T = tested on: Hs-578T
IGROV-1 = tested on: IGROV-1
K562 = tested on: K562
KM12 = tested on: KM12
LOX IMVI = tested on: LOX IMVI
M14 = tested on: M14
MCF7 = tested on: MCF7
MDA-MB-231 = tested on: MDA-MB-231
MDA-MB-435 = tested on: MDA-MB-435
MDA-N = tested on: MDA-N
MOLT-4 = tested on: MOLT-4
NCI-H226 = tested on: NCI-H226
NCI-H23 = tested on: NCI-H23
NCI-H460 = tested on: NCI-H460
NCI/ADR-RES = tested on: NCI/ADR-RES
OVCAR-3 = tested on: OVCAR-3
OVCAR-4 = tested on: OVCAR-4
OVCAR-5 = tested on: OVCAR-5
OVCAR-8 = tested on: OVCAR-8
PC-3 = tested on: PC-3
RPMI-8226 = tested on: RPMI-8226
RXF 393 = tested on: RXF 393
SF-268 = tested on: SF-268
SF-295 = tested on: SF-295
SF-539 = tested on: SF-539
SK-MEL-28 = tested on: SK-MEL-28
SK-MEL-2 = tested on: SK-MEL-2
SK-MEL-5 = tested on: SK-MEL-5
SK-OV-3 = tested on: SK-OV-3
SN12C = tested on: SN12C
SNB-19 = tested on: SNB-19
SNB-75 = tested on: SNB-75
SR = tested on: SR
T47D = tested on: T47D
TK-10 = tested on: TK-10
U-251 = tested on: U-251
UACC-257 = tested on: UACC-257
UACC-62 = tested on: UACC-62
UO-31 = tested on: UO-31
Malme-3M = tested on: Malme-3M
NCI-H522 = tested on: NCI-H522
SW-620 = tested on: SW-620

**Q.** `Cc1c(C(=O)OCc2ccccc2)[n+]([O-])c2ccccc2[n+]1[O-]` was tested. Which GI50 (786-0) did it give?
**A.** Its GI50 is 44.1 µM (inactive).

**Q.** What about the GI50 (A498) of the same molecule?
**A.** Its GI50 is 36.1 µM (inactive).

**Q.** And the GI50 (A549)?
**A.** The GI50 was 22.2 µM (inactive).

**Q.** And the GI50 (ACHN)?
**A.** Its GI50 is 74.3 µM (inactive).

**Q.** What about the GI50 (BT-549) of the same molecule?
**A.** Its GI50 is 57.9 µM (inactive).

**Q.** What about the GI50 (CAKI-1) of the same molecule?
**A.** The GI50 was 24.5 µM (inactive).

**Q.** What about the GI50 (CCRF-CEM) of the same molecule?
**A.** Its GI50 is < 0.01 µM (active).

**Q.** And the GI50 (COLO 205)?
**A.** The GI50 was 18.5 µM (inactive).

**Q.** And the GI50 (DU-145)?
**A.** The GI50 was 19.9 µM (inactive).

**Q.** What about the GI50 (EKVX) of the same molecule?
**A.** The GI50 was 25.8 µM (inactive).

**Q.** What about the GI50 (HCC 2998) of the same molecule?
**A.** The GI50 was 30.8 µM (inactive).

**Q.** And the GI50 (HCT-116)?
**A.** The GI50 was 25.1 µM (inactive).

**Q.** And the GI50 (HCT-15)?
**A.** The GI50 was 40.9 µM.

**Q.** What about the GI50 (HL-60) of the same molecule?
**A.** The GI50 was 26.1 µM (inactive).

**Q.** And the GI50 (HOP-62)?
**A.** Its GI50 is 22.3 µM (inactive).

**Q.** And the GI50 (HOP-92)?
**A.** The GI50 was 0.22 µM (active).

**Q.** And the GI50 (HT-29)?
**A.** Its GI50 is 60.8 µM (inactive).

**Q.** What about the GI50 (Hs-578T) of the same molecule?
**A.** Its GI50 is 30.1 µM (inactive).

**Q.** What about the GI50 (IGROV-1) of the same molecule?
**A.** The GI50 was 13 µM (inactive).

**Q.** And the GI50 (K562)?
**A.** The GI50 was 37.6 µM (inactive).

**Q.** What about the GI50 (KM12) of the same molecule?
**A.** The GI50 was 28.1 µM (inactive).

**Q.** And the GI50 (LOX IMVI)?
**A.** Its GI50 is 20 µM (inactive).

**Q.** What about the GI50 (M14) of the same molecule?
**A.** Its GI50 is 32.1 µM (inactive).

**Q.** And the GI50 (MCF7)?
**A.** Its GI50 is 19.5 µM (inactive).

**Q.** And the GI50 (MDA-MB-231)?
**A.** Its GI50 is 20.8 µM (inactive).

**Q.** What about the GI50 (MDA-MB-435) of the same molecule?
**A.** Its GI50 is 26.4 µM (inactive).

**Q.** And the GI50 (MDA-N)?
**A.** Its GI50 is 41.6 µM (inactive).

**Q.** What about the GI50 (MOLT-4) of the same molecule?
**A.** The GI50 was 5.4 µM (inactive).

**Q.** What about the GI50 (NCI-H226) of the same molecule?
**A.** Its GI50 is 14.5 µM (inactive).

**Q.** And the GI50 (NCI-H23)?
**A.** Its GI50 is 33.7 µM (inactive).

**Q.** What about the GI50 (NCI-H460) of the same molecule?
**A.** The GI50 was 25.4 µM (inactive).

**Q.** And the GI50 (NCI/ADR-RES)?
**A.** Its GI50 is 26.2 µM (inactive).

**Q.** And the GI50 (OVCAR-3)?
**A.** The GI50 was 30.3 µM (inactive).

**Q.** What about the GI50 (OVCAR-4) of the same molecule?
**A.** Its GI50 is 20.8 µM (inactive).

**Q.** What about the GI50 (OVCAR-5) of the same molecule?
**A.** The GI50 was 60.1 µM (inactive).

**Q.** And the GI50 (OVCAR-8)?
**A.** The GI50 was 48.6 µM (inactive).

**Q.** And the GI50 (PC-3)?
**A.** The GI50 was 23.1 µM (inactive).

**Q.** What about the GI50 (RPMI-8226) of the same molecule?
**A.** Its GI50 is 11.6 µM (inactive).

**Q.** And the GI50 (RXF 393)?
**A.** The GI50 was 23.7 µM (inactive).

**Q.** What about the GI50 (SF-268) of the same molecule?
**A.** The GI50 was 34.7 µM (inactive).

**Q.** What about the GI50 (SF-295) of the same molecule?
**A.** Its GI50 is 32.7 µM (inactive).

**Q.** And the GI50 (SF-539)?
**A.** The GI50 was 42.1 µM (inactive).

**Q.** What about the GI50 (SK-MEL-28) of the same molecule?
**A.** Its GI50 is 66.1 µM (inactive).

**Q.** What about the GI50 (SK-MEL-2) of the same molecule?
**A.** Its GI50 is 32.8 µM (inactive).

**Q.** And the GI50 (SK-MEL-5)?
**A.** The GI50 was 22 µM (inactive).

**Q.** And the GI50 (SK-OV-3)?
**A.** The GI50 was 28 µM (inactive).

**Q.** And the GI50 (SN12C)?
**A.** Its GI50 is 31.3 µM (inactive).

**Q.** What about the GI50 (SNB-19) of the same molecule?
**A.** Its GI50 is 57.3 µM (inactive).

**Q.** What about the GI50 (SNB-75) of the same molecule?
**A.** The GI50 was 15.6 µM (inactive).

**Q.** What about the GI50 (SR) of the same molecule?
**A.** The GI50 was 19.5 µM (inactive).

**Q.** What about the GI50 (T47D) of the same molecule?
**A.** The GI50 was 13.4 µM (inactive).

**Q.** And the GI50 (TK-10)?
**A.** The GI50 was 33.2 µM (inactive).

**Q.** What about the GI50 (U-251) of the same molecule?
**A.** Its GI50 is 40.8 µM (inactive).

**Q.** And the GI50 (UACC-257)?
**A.** The GI50 was 17.8 µM (inactive).

**Q.** What about the GI50 (UACC-62) of the same molecule?
**A.** The GI50 was 25.6 µM (inactive).

**Q.** And the GI50 (UO-31)?
**A.** Its GI50 is 27.8 µM (inactive).

**Q.** What does the source list for `COc1nc(C#CCCCC#N)nc(OC)n1`?
**A.** GI50 (786-0): 11.1 µM (inactive); GI50 (A498): 20.7 µM (inactive); GI50 (A549): 15.8 µM (inactive); GI50 (ACHN): 8.93 µM (inactive); GI50 (BT-549): 15.9 µM (inactive); GI50 (CAKI-1): 12.8 µM (inactive); GI50 (COLO 205): 29.9 µM (inactive); GI50 (DU-145): 8.93 µM (inactive); GI50 (EKVX): 19.8 µM (inactive); GI50 (HCT-116): 8.79 µM (inactive); GI50 (HCT-15): 3.29 µM; GI50 (HL-60): 4.13 µM (inactive); GI50 (HOP-62): 24.2 µM (inactive); GI50 (HT-29): 24.3 µM (inactive); GI50 (Hs-578T): 40.8 µM (inactive); GI50 (IGROV-1): 17.3 µM (inactive); GI50 (K562): 17.9 µM (inactive); GI50 (KM12): 16.9 µM (inactive); GI50 (LOX IMVI): 2.08 µM (inactive); GI50 (M14): 22.2 µM (inactive); GI50 (MCF7): 5.27 µM (inactive); GI50 (MDA-MB-231): 11.7 µM (inactive); GI50 (MDA-MB-435): 10.4 µM (inactive); GI50 (MDA-N): 15.7 µM (inactive); GI50 (MOLT-4): 14.4 µM (inactive); GI50 (Malme-3M): 13.4 µM (inactive); GI50 (NCI-H23): 13.8 µM (inactive); GI50 (NCI-H460): 26.3 µM (inactive); GI50 (NCI-H522): 14.2 µM (inactive); GI50 (NCI/ADR-RES): 28.5 µM (inactive); GI50 (OVCAR-3): 13.3 µM (inactive); GI50 (OVCAR-4): 3.82 µM (inactive); GI50 (OVCAR-5): 13.5 µM (inactive); GI50 (OVCAR-8): 21.2 µM (inactive); GI50 (PC-3): 13.2 µM (inactive); GI50 (RXF 393): 15.6 µM (inactive); GI50 (SF-268): 27.3 µM (inactive); GI50 (SF-295): 28.2 µM (inactive); GI50 (SF-539): 20.5 µM (inactive); GI50 (SK-MEL-28): 15.5 µM (inactive); GI50 (SK-MEL-2): 16 µM (inactive); GI50 (SK-MEL-5): 13.3 µM (inactive); GI50 (SK-OV-3): 90.6 µM (inactive); GI50 (SN12C): 16.4 µM (inactive); GI50 (SNB-19): 77.3 µM (inactive); GI50 (SNB-75): 19.5 µM (inactive); GI50 (SR): 7.38 µM (inactive); GI50 (SW-620): 15 µM (inactive); GI50 (T47D): 35.4 µM (inactive); GI50 (TK-10): 21.6 µM (inactive); GI50 (U-251): 13.4 µM (inactive); GI50 (UACC-257): 18.9 µM (inactive); GI50 (UACC-62): 9.62 µM (inactive); GI50 (UO-31): 11.1 µM (inactive)
